# From ChEMBL document CHEMBL2040802, “Synthesis and pharmacological activity of N-(2,2-dimethyl-3,4-dihydro-2H-1-benzopyran-4-yl)-4H-1,2,4-benzothiadiazine-3-carboxamides 1,1-dioxides on rat uterus, rat aorta and rat pancreatic β-cells” (Eur J Med Chem, 2012)
# pEC50: −log10 of the molar value.
# Tests used:
# [1] = Inhibition of glucose-induced insulin secretion from Wistar rat pancreatic islet assessed as residual insulin release at 50 uM after 90 mins by radiometric analysis; type: functional
# [2] = test system: Aorta; test: Myorelaxant activity in Wistar rat aorta rings assessed as inhibition of KCl-induced contraction; type: functional, tissue-based
# [3] = Myorelaxant effect in oxytoxin-induced Wistar rat uterus smooth muscle assessed as residual contractile activity by continuous superfusion of oxytocin at 10 uM; type: functional
# [4] = Myorelaxant effect in oxytoxin-induced Wistar rat uterus smooth muscle assessed as residual contractile activity by continuous superfusion of oxytocin at 50 uM; type: functional
# [5] = Myorelaxant effect in oxytoxin-induced Wistar rat uterus smooth muscle assessed as residual contractile activity by continuous superfusion of oxytocin at 100 uM; type: functional
Structure (SMILES),Activity [1] [%],pEC50 [2],Activity [3] [%],Activity [4] [%],Activity [5] [%]
Cc1ccc2c(c1)S(=O)(=O)N=C(C(=O)NC1CC(C)(C)Oc3ccc(F)cc31)N2 (centres undefined),96.9,< 4.52,116.6,132.4,124.4
CC(N/C(=N\C#N)Nc1ccncc1)C(C)(C)C (centres undefined) [PINACIDIL ANHYDROUS],92.1,,58.1,35.5,38.1
CC1(C)CC(NC(=O)C2=NS(=O)(=O)c3ccccc3N2)c2cc([N+](=O)[O-])ccc2O1 (centres undefined),77.9,< 4.52,96.8,62.4,34.7
CC1(C)CC(NC(=O)C2=NS(=O)(=O)c3ccccc3N2)c2cc(Br)ccc2O1 (centres undefined),86.7,< 4.52,60.1,44.3,19.9
Cc1ccc2c(c1)S(=O)(=O)N=C(C(=O)NC1CC(C)(C)Oc3ccc([N+](=O)[O-])cc31)N2 (centres undefined),75.7,< 4.52,103.9,94.9,90.6
Cc1ccc2c(c1)S(=O)(=O)N=C(C(=O)NC1CC(C)(C)Oc3ccc(Br)cc31)N2 (centres undefined),91.4,< 4.52,76.8,44.5,6.6
CC1(C)Oc2ccc(C#N)cc2[C@@H](N2CCCC2=O)[C@@H]1O (relative stereo) [LEVCROMAKALIM],77.2,,,,
CC1=Nc2ccc(Cl)cc2S(=O)(=O)N1 [DIAZOXIDE],28.8,,93.8,76.3,67.7
CC1(C)CC(NC(=O)C2=NS(=O)(=O)c3ccccc3N2)c2cc(F)ccc2O1 (centres undefined),77.3,< 4.52,123.7,97.9,76.8
CC1(C)CC(NC(=O)C2=NS(=O)(=O)c3cc(Cl)ccc3N2)c2cc([N+](=O)[O-])ccc2O1 (centres undefined),77,< 4.52,97.9,70.9,34.7
